Common to all, as to format: cell-based
One assay relates to RSV strain A2. The assay can be described thus: microbe, parasite or virus in culture. The settings on record: read-out: RSV HEp-2 EC50. Put shortly:
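Cytopathic-effect protection assay: HEp-2 cells (50,000/mL) infected with pre-titered RSV A2 onto 3-fold serial compound dilutions, incubated 4 days at 37° C. Cell viability read by CellTiter-Glo luminescence; percent inhibition derived against 0% and 100% virus-inhibition controls.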

Another assay concerns DENV2 replicon. The assay can be described thus: DENV-2 Huh-7 Rep EC50 (replicon luminescence). The protocol: In 384 well plates (Greiner, Cat #781091), compounds were acoustically transferred at 200 nl per well in a 8 compound (4 replicates) or 40 compound dose response format (3 replicates). For all plates tested, Balapiravir, GS-5734 and NITD008 were included as positive inhibition controls alongside 0% inhibition, DMSO-only negative control wells. Following compound addition, Huh-7 cells containing the DENV2 replicon construct were harvested following standard cell culture procedures and were adjusted to a concentration of 1.25E5 cells/mL in cell culture media composed of cDMEM without genticin. 40 μL of the cell stock was then added to each well for a final cell density of 5,000 cells/well. Cell and compound mixtures were incubated at 37° C./5% CO2 for 48 hours. Prior to harvesting cells, EnduRen Live Cell Substrate (Promega, Cat #E6481) was prepared by suspending 3.4 mg into 100 uL of DMSO to generate a 60 mM stock solution. The stock solution was then diluted 1:200 in pre-warmed cDMEM and 10 uL of this diluted solution was added to each well of the 384 well plates. Plates were then centrifuged at 500 rpm briefly and were placed on a plate shaker for 2 min. Following mixing, plates were incubated at […] for 1.5 hours prior to measuring luminescence on an Envision luminometer.
A general note: In antiviral work, replicon cells carry a viral genome segment that copies itself.

A further assay concerns RSV A2. The assay can be described thus: RSV NHBE EC50 (RSV A2 antiviral assay in NHBE cells). As to conditions: read-out: RSV NHBE EC50. The procedure, abridged: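 Primary bronchial epithelial cells attach overnight, receive 3-fold serial compound dilutions, and are infected with RSV A2 at 1×10^4.5 tissue culture infectious doses/mL. Protection from virus-induced cell death is scored by luminescent viability assay after 4 days.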

For another assay, the system named is HRV16. Nature of the assay: HRV16 HeLa EC50 (cytopathic effect in H1-HeLa cells). The protocol: H1-HeLa cells, cultured in complete DMEM medium containing 10% heat-inactivated FBS and 1% Penicillin/Streptomycin, were seeded in 96 well plates at 3000 cells/well one day prior to compound dosing and infection. The antiviral activity of each compound was measured in triplicate. Compounds were added directly to the cell cultures in serial 3-fold dilutions using the HP300 digital dispenser (Hewlett Packard, Palo Alto, CA) immediately prior to infection. The plates were transferred to BSL-2 containment and the appropriate dilution of virus stock, previously determined by titration and prepared in cell culture media, was added to test plates containing cells and serially diluted compounds. Each plate included 6 wells of infected untreated cells and 6 wells of uninfected cells that served as 0% and 100% virus inhibition control, respectively. Following the infection, test plates were incubated for 96 h in a tissue culture incubator set to 33° C./5% CO2. Following incubation, the H1-HeLa cells were removed from incubation and allowed to equilibrate to 25° C. Cell viability was determined by removing 100 μL of culture medium and adding 100 μL of Cell-Titer Glo viability reagent. The mixtures were incubated on a shaker for 10 minutes at 25° C., and the luminescence signal was quantified on an Envision luminescence plate reader.
Background: Cytopathic effects are the visible damage that an infection or toxin causes in cultured cells.

The mark [1] stands for this setting: human respiratory syncytial virus, HEp-2, 96 h, Table 3, HEp-2 cells, RSV A2, 4 days.
The mark [2] stands for this setting: Dengue virus, DENV2, Huh-7, 48 h, read-out: DENV-2 REP Huh7 EC50.
Where [3] appears, read: human respiratory syncytial virus, NHBE, 96 h, Table 3, NHBE cells, RSV A2, 4 days.
Where [4] appears, read: Table 3, HEp-2 cells, RSV A2, 4 days.
Where [5] appears, read: Table 3, Huh-7 DENV2 replicon cells, 48 hours, read-out: DENV-2 REP Huh7 EC50.
Where [6] appears, read: Table 3, NHBE cells, RSV A2, 4 days.
The mark [7] stands for this setting: 96 h, Table 3; H1-HeLa cells, 96 h; read-out: HRV16 HeLa EC50.

Like-named read-outs stand apart in the source and are kept apart here. Where only a bound is given, the exact number is not on record here.

Consider `CC(C)C(=O)O[C@H]1[C@H](c2ccc3c(N)ncnn23)O[C@](C#N)(COP(=O)(N[C@@H](C)C(=O)OCC2CCOCC2)Oc2ccccc2)[C@H]1OC(=O)C(C)C` (mixture of isomers) [Example 181, (2R,3S,4S,5S)-5-(4-aminopyrrolo[2,1-f][1,2,4]triazin-7-yl)-2-cyano-2-((((((S)-1-oxo-1-((tetrahydro-2H-pyran-4-yl)methoxy)propan-2-yl)amino)(phenoxy)phosphoryl)oxy)methyl)tetrahydrofuran-3,4-diyl bis(2-methylpropanoate)], for which the concentration for a half-maximal effect (EC50) (commonly the concentration that produces a half-maximal response) came to 84 nM in the assay on RSV strain A2 (setting [1]); 84 nM with RSV strain A2 (human respiratory syncytial virus, HEp-2, Table 5 comparative activity, 2',3'-OH vs -OC(O)iPr); 6630 nM in the assay on DENV2 replicon (setting [2]); 6630 nM in the assay on DENV2 replicon (Dengue virus, DENV2, Huh-7, read-out: DENV Rep EC50); 30 nM in the assay on RSV A2 (setting [3]); 30 nM in the assay with RSV A2 (human respiratory syncytial virus, NHBE, Table 5 comparative activity, 2',3'-OH vs -OC(O)iPr).

On to `CC(=O)O[C@H]1[C@H](c2ccc3c(N)ncnn23)O[C@](C#N)(COP(=O)(N[C@@H](C)C(=O)OC2CCOCC2)Oc2ccccc2)[C@H]1OC(C)=O` (single isomer, unassigned) [Example 164], for which the EC50 with RSV strain A2 (setting [4]) was 1690 nM; in the assay with DENV2 replicon (setting [5]), > 100000 nM; in the assay with RSV A2 (setting [6]), 148 nM.

Regarding `C[C@H](NP(=O)(OC[C@@]1(C#N)O[C@@H](c2ccc3c(N)ncnn23)[C@H](OC(=O)C(C)(C)C)[C@@H]1OC(=O)C(C)(C)C)Oc1ccccc1)C(=O)OC1CCOCC1` (single isomer, unassigned) [Example 172], the EC50 in the assay with RSV strain A2 (setting [4]) stood at 1100 nM; in the assay with DENV2 replicon (setting [5]), 16800 nM; in the assay with RSV A2 (setting [6]) it was 145 nM.

`CC(C)C(=O)O[C@H]1[C@H](c2ccc3c(N)ncnn23)O[C@](C#N)(COP(=O)(N[C@@H](C)C(=O)OCC(C)(C)O)Oc2ccccc2)[C@H]1OC(=O)C(C)C` (single isomer, unassigned) [Example 257]: the results for the EC50 in the assay on RSV strain A2 (setting [4]), in the assay with DENV2 replicon (setting [5]) and in the assay on RSV A2 (setting [6]) were 72 nM, 7470 nM and 24 nM, respectively.

As to `CC(C)C(=O)O[C@H]1[C@H](c2ccc3c(N)ncnn23)O[C@](C#N)(COP(=O)(N[C@@H](C)C(=O)OCC(C)(C)O)Oc2ccccc2)[C@H]1OC(=O)C(C)C` (single isomer, unassigned) [Example 258], the values for the half-maximal effective concentration (EC50) with RSV strain A2 (setting [4]), in the assay on DENV2 replicon (setting [5]) and in the assay with RSV A2 (setting [6]) were 91 nM, 18300 nM and 34 nM, respectively.

With `CCC(=O)OC1[C@H](c2ccc3c(N)ncnn23)O[C@](C#N)(COP(=O)(N[C@@H](C)C(=O)OCC2CCC2)Oc2ccccc2)[C@H]1OC(=O)CC` (stereo in doubt) [Example 91, (2R,3S,4R,5S)-5-(4-aminopyrrolo[2,1-f][1,2,4]triazin-7-yl)-2-cyano-2-((((((S)-1-(cyclobutylmethoxy)-1-oxopropan-2-yl)amino)(phenoxy)phosphoryl)oxy)methyl) tetrahydrofuran-3,4-diyl dipropionate], the EC50 in the assay with RSV strain A2 (setting [1]) came to 67 nM; in the assay with DENV2 replicon (setting [2]), 10200 nM; in the assay on RSV A2 (setting [3]), 23 nM.

For `CC(=O)OC1[C@H](c2ccc3c(N)ncnn23)O[C@](C#N)(COP(=O)(N[C@@H](C)C(=O)OCC2CCC2)Oc2ccccc2)[C@H]1OC(C)=O` (stereo in doubt) [Example 94, (2R,3S,4R,5S)-5-(4-aminopyrrolo[2,1-f][1,2,4]triazin-7-yl)-2-cyano-2-((((((S)-1-(cyclobutylmethoxy)-1-oxopropan-2-yl)amino)(phenoxy)phosphoryl)oxy)methyl) tetrahydrofuran-3,4-diyl diacetate], the concentration for a half-maximal effect (EC50) is 189 nM with RSV strain A2 (setting [1]), 13700 nM with DENV2 replicon (setting [2]) and 41 nM in the assay with RSV A2 (setting [3]).

On to `CC(=O)OC1[C@H](c2ccc3c(N)ncnn23)O[C@](C#N)(COP(=O)(N[C@@H](C)C(=O)OCC2CC2)Oc2ccccc2)[C@H]1OC(C)=O` (stereo in doubt) [Example 101, (2R,3S,4R,5S)-5-(4-aminopyrrolo[2,1-f][1,2,4]triazin-7-yl)-2-cyano-2-((((((S)-1-(cyclopropylmethoxy)-1-oxopropan-2-yl)amino)(phenoxy)phosphoryl)oxy)methyl) tetrahydrofuran-3,4-diyl diacetate], for which the results for the EC50 in the assay on RSV strain A2 (setting [1]), in the assay with DENV2 replicon (setting [2]) and in the assay with RSV A2 (setting [3]) were 94 nM, 25800 nM and 19 nM, respectively.

With `COC(=O)[C@H](C)NP(=O)(OC[C@@]1(C#N)O[C@@H](c2ccc3c(N)ncnn23)[C@H](OC(=O)C(C)C)[C@@H]1OC(=O)C(C)C)Oc1ccc(C[C@H](N)C(=O)OC)cc1` (stereo partly drawn) [Example 235, (2R,3S,4S,5S)-2-((((4-((S)-2-amino-3-methoxy-3-oxopropyl)phenoxy)(((S)-1-methoxy-1-oxopropan-2-yl)amino)phosphoryl)oxy)methyl)-5-(4-aminopyrrolo[2,1-f][1,2,4]triazin-7-yl)-2-cyanotetrahydrofuran-3,4-diyl bis(2-methylpropanoate)], the figures for the EC50 with HRV16 (setting [7]), with RSV strain A2 (setting [1]) and with RSV A2 (setting [3]) were 2260 nM, 742 nM and 113 nM, respectively.

On to `CC(C)C(=O)O[C@H]1[C@H](c2ccc3c(N)ncnn23)O[C@](C#N)(COP(=O)(N[C@@H](C)C(=O)OCc2ccccc2)Oc2ccccc2)[C@H]1OC(=O)C(C)C` (stereo partly drawn) [Example 236, (2R,3S,4S,5S)-5-(4-aminopyrrolo[2,1-f][1,2,4]triazin-7-yl)-2-((((((S)-1-(benzyloxy)-1-oxopropan-2-yl)amino)(phenoxy)phosphoryl)oxy)methyl)-2-cyanotetrahydrofuran-3,4-diyl bis(2-methylpropanoate)], for which the EC50 in the assay on HRV16 (setting [7]) is 136 nM; with RSV strain A2 (setting [1]), 49 nM; with RSV A2 (setting [3]), 24 nM.

Take `CC(C)C(=O)O[C@H]1[C@H](c2ccc3c(N)ncnn23)O[C@](C#N)(COP(=O)(N[C@@H](C)C(=O)OCCCN2CCOCC2)Oc2ccccc2)[C@H]1OC(=O)C(C)C` (stereo partly drawn) [Example 237, (2R,3S,4S,5S)-5-(4-aminopyrrolo[2,1-f][1,2,4]triazin-7-yl)-2-cyano-2-((((((S)-1-(3-morpholinopropoxy)-1-oxopropan-2-yl)amino)(phenoxy)phosphoryl)oxy)methyl) tetrahydrofuran-3,4-diyl bis(2-methylpropanoate)]: the half-maximal effective concentration (EC50) in the assay on HRV16 (setting [7]) was determined as 478 nM; in the assay on RSV strain A2 (setting [1]), 106 nM; in the assay with RSV A2 (setting [3]), 43 nM.

For `CC(C)C(=O)O[C@H]1[C@H](c2ccc3c(N)ncnn23)O[C@](C#N)(COP(=O)(N[C@@H](C)C(=O)OCC2CC2)Oc2ccccc2)[C@H]1OC(=O)C(C)C` (stereo partly drawn) [Example 238, (2R,3S,4S,5S)-5-(4-aminopyrrolo[2,1-f][1,2,4]triazin-7-yl)-2-cyano-2-((((((S)-1-(cyclopropylmethoxy)-1-oxopropan-2-yl)amino)(phenoxy)phosphoryl)oxy)methyl) tetrahydrofuran-3,4-diyl bis(2-methylpropanoate)], the EC50 is 99 nM in the assay on HRV16 (Table 3; H1-HeLa cells, 96 h; read-out: HRV16 HeLa EC50); 27 nM in the assay with RSV strain A2 (setting [4]); 28 nM in the assay on RSV A2 (setting [6]).

Take `CCC(CC)COC(=O)[C@H](C)NP(=O)(O)OC[C@@]1(C#N)O[C@@H](c2ccc3c(N)ncnn23)[C@H](OC(=O)C(C)C)[C@@H]1OC(=O)C(C)C` [Example 239, ((2R,3S,4S,5S)-5-(4-aminopyrrolo[2,1-f][1,2,4]triazin-7-yl)-2-cyano-3,4-bis(isobutyryloxy)tetrahydrofuran-2-yl)methyl ((S)-1-(2-ethylbutoxy)-1-oxopropan-2-yl)phosphoramidate]: the values for the EC50 with HRV16 (setting [7]), in the assay with RSV strain A2 (setting [1]) and in the assay with RSV A2 (setting [3]) were > 50000 nM, > 9830 nM and 2260 nM, respectively.

Source of the values: patent publication US12264173B2 (GILEAD SCIENCES, INC., priority 2020, dated 2025).
